Experimental data from the supplement of paper PMC10307832.

Key:
Assay in all cases: relative viability (nuclei count vs DMSO), 5 days (fraction); higher = more cells survive
Midostaurin + Trametinib = compound: CO[C@@H]1[C@H](N(C)C(=O)c2ccccc2)C[C@H]2O[C@]1(C)n1c3ccccc3c3c4c(c5c6ccccc6n2c5c31)C(=O)NC4 [Midostaurin] + CC(=O)Nc1cccc(-n2c(=O)n(C3CC3)c(=O)c3c(Nc4ccc(I)cc4F)n(C)c(=O)c(C)c32)c1 [Trametinib] (partner 0.02 µM)
Procedure, shortened: (§1)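 Lung cancer cell lines in 1536-well plates were dosed by pin tool the day after seeding, either with one drug alone or with a fixed anchor-drug dose plus five library-drug doses (not always all listed) in √10 steps. After 5 days, cells were fixed and their nuclei stained in one step (final 0.05% Triton X-100, 1% formaldehyde, 1 ug/ml Hoechst), then counted on 4× images. Relative viability is the nuclei count in treated wells divided by that in vehicle wells. Values are medians of duplicate plates.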

Midostaurin + Lapatinib = compound: CO[C@@H]1[C@H](N(C)C(=O)c2ccccc2)C[C@H]2O[C@]1(C)n1c3ccccc3c3c4c(c5c6ccccc6n2c5c31)C(=O)NC4 [Midostaurin] + CS(=O)(=O)CCNCc1ccc(-c2ccc3ncnc(Nc4ccc(OCc5cccc(F)c5)c(Cl)c4)c3c2)o1 [Lapatinib] (partner 2 µM)
Procedure, shortened: as §1

Midostaurin + Pictilisib = compound: CO[C@@H]1[C@H](N(C)C(=O)c2ccccc2)C[C@H]2O[C@]1(C)n1c3ccccc3c3c4c(c5c6ccccc6n2c5c31)C(=O)NC4 [Midostaurin] + CS(=O)(=O)N1CCN(Cc2cc3nc(-c4cccc5[nH]ncc45)nc(N4CCOCC4)c3s2)CC1 [Pictilisib] (partner 1 µM)
Procedure, shortened: as §1

Midostaurin + AZD7762 = compound: CO[C@@H]1[C@H](N(C)C(=O)c2ccccc2)C[C@H]2O[C@]1(C)n1c3ccccc3c3c4c(c5c6ccccc6n2c5c31)C(=O)NC4 [Midostaurin] + NC(=O)Nc1cc(-c2cccc(F)c2)sc1C(=O)N[C@H]1CCCNC1 [AZD7762] (partner 0.2 µM)
Procedure, shortened: as §1

[1] = compound: COc1cc(-c2nn([C@H]3CC[C@H](N4CCN(C(C)=O)CC4)CC3)c3ncnc(N)c23)ccc1NC(=O)c1cc2ccccc2n1C + N=C(N)NC(=N)NCCc1ccccc1 [Phenformin] (partner 250 µM)
Procedure, shortened: as §1

Row | Cell Line | relative viability (Midostaurin + Trametinib; first compound 0.01 µM) | relative viability (Midostaurin + Trametinib; first compound 0.03162 µM) | relative viability (Midostaurin + Trametinib; first compound 0.1 µM) | relative viability (Midostaurin + Trametinib; first compound 0.3162 µM) | relative viability (Midostaurin + Lapatinib; first compound 0.01 µM) | relative viability (Midostaurin + Lapatinib; first compound 0.03162 µM) | relative viability (Midostaurin + Lapatinib; first compound 0.1 µM) | relative viability (Midostaurin + Lapatinib; first compound 0.3162 µM) | relative viability (Midostaurin + Pictilisib; first compound 0.01 µM) | relative viability (Midostaurin + Pictilisib; first compound 0.03162 µM) | relative viability (Midostaurin + Pictilisib; first compound 0.1 µM) | relative viability (Midostaurin + Pictilisib; first compound 0.3162 µM) | relative viability (Midostaurin + AZD7762; first compound 0.01 µM) | relative viability (Midostaurin + AZD7762; first compound 0.03162 µM) | relative viability (Midostaurin + AZD7762; first compound 0.1 µM) | relative viability (Midostaurin + AZD7762; first compound 0.3162 µM) | relative viability ([1]; first compound 0.0128 µM) | relative viability ([1]; first compound 0.04048 µM) | relative viability ([1]; first compound 0.128 µM) | relative viability ([1]; first compound 1.28 µM)
1 | NCI-H23 | 0.369 | 0.441 | 0.285 | 0.299 | 1.05 | 1 | 1 | 0.949 | 0.448 | 0.402 | 0.439 | 0.326 | 0.215 | 0.265 | 0.281 | 0.14 | 0.765 | 0.835 | 0.805 | 0.717
2 | NCI-H1395 | 0.978 | 0.991 | 1.15 | 1.08 | 1.04 | 1.12 | 0.912 | 1.3 | 0.592 | 0.588 | 0.588 | 0.615 | 0.407 | 0.427 | 0.408 | 0.429 | 0.419 | 0.461 | 0.431 | 0.395
3 | 201T | 0.714 | 0.707 | 0.755 | 0.795 | 1.06 | 0.982 | 1.07 | 1.08 | 0.707 | 0.571 | 0.659 | 0.722 | 0.509 | 0.687 | 0.595 | 0.66 | 0.448 | 0.446 | 0.401 | 0.353
